Data as given in patent publication US8268355B2, “Silica particle comprising an organolanthanide compound, preparation process therefor and uses thereof” (Commissariat a l'Energie Atomique, priority 2008, dated 2012).

Tests used:
[1] = gadolinium complexes of dtpa; cited from earlier work
[2] = Potentiometric titration of the ligand with KOH: deprotonation constants; format: physicochemical; details: titration with KOH in KCl 0.1M, 298 K
Description: (§1) The three sulfonates are fully deprotonated under the experimental conditions used. The deprotonation constants of H9thqtcn-SO3^3+ are defined as Kai=[H9-iL]^(1-i) [H]^+/[H8-iL]^(2-i)+. Analysis of the potentiometric curves enabled precise determination of 6 deprotonation constants (pKa8=2.9(2), pKa7=5.34(5), pKa6=8.01(8), pKa5=8.78(1), pKa4=8.98(4), pKa3=10.25(2)), whereas it was possible only to obtain the sum pKa1+pKa2=(22.51(3)).

[3] = Stability of the Gd complex (pGd) by UV-visible spectrophotometry in HEPES buffer pH 7.4; format: physicochemical; details: pH 7.4, HEPES, [M]total=1 mM, [bpatcn]total=10 mM
Experimental: Appreciably, the interaction between the lanthanide ions and the ligand was monitored by UV-visible spectrophotometry for a representative ion of intermediate size, namely Gd in dilute aqueous solutions, buffered with HEPES at pH 7.4. The value of pGd (pM=−log [M]free at pH 7.4, [M]total=1 mM and [bpatcn]total=10 mM), which allows a simple and direct comparison of the stabilities of the complexes under physiological conditions, found for thqtcn-SO3^6−(19) is similar to the value reported for the gadolinium complexes of diethylenetriaminepentaacetic acid (dtpa) (pGd=19.6), which are widely acknowledged as non-toxic.

Solubility observations = format: physicochemical; details: aqueous, potentiometric titration conditions
Description: as §1
The elemental analyses of all the complexes are compatible with the presence of analytically pure [Ln(thqtcn)] species. These complexes are insoluble in all the commonly used laboratory solvents.
As hoped, this ligand results in Ln(III) complexes that are water-soluble at physiological pHs.

pKa3 [2] | pKa4 [2] | pKa5 [2] | pKa6 [2] | pKa7 [2] | pKa8 [2] | sum pKa1+pKa2 [2] | pGd (pM=-log [M]free) [3] | solubility of the ligand (Solubility observations) | Molecule | pGd (reported value) [1]
 |  |  |  |  |  |  |  |  | O=C(O)CN(CCN(CC(=O)O)CC(=O)O)CCN(CC(=O)O)CC(=O)O [dtpa, diethylenetriaminepentaacetic acid] | 19.6
10.25(2) | 8.98(4) | 8.78(1) | 8.01(8) | 5.34(5) | 2.9(2) | 22.51(3) | 19 | high solubility | 1,4,7-tris[2-(5-sulfo-8-hydroxyquinolinyl)methyl]-1,4,7-triaza-cyclononane [H6thqtcn-SO3] | 
